# “And” between values parts separate entries of the source, which are not always exact repeats. Equal values may be shown once. Read-outs that look alike come from different tables or passages of the source. Marks after values point to notes of the source that are not given here.
# What was measured:
# BCa = BCa mice: tumor volume by treatment; assay type: in vivo; details: Day*Treatment effect
# [1] = randomized blinded n-of-1 PK/PD study: FPLC of morning urine; assay type: in vivo; details: oral intake in the evening
# Text: The substances compared were • HP-α-CD, • the HP-α-CD/sodium caprate clathrate • a mixture of the HP-α-CD clathrate with the same amount of sodium caprate clathrate, also known as C-10 fatty acid, capric acid, decanoic acid. • a mixture of the HP-α-CD clathrate with the oily suspension proposed by (Tuvia S, Pelled D, et al. (2014) Pharmaceutical Research 31:2010-21).
# Six samples per substance were taken.
# The samples were taken in the evening before bed-time and urine samples were taken
# Unexpectedly, however, PA (675) and SM (650) are not reduced and neither are lyso-phospholipids (460-550).
# [2] = randomized n-of-1 dose escalation study: excretion of phospholipids into urine after oral administration; assay type: in vivo, human; details: for Excretion of phospholipids into urine, adj (expected level in healthy subjects subtracted) / Excretion of phospholipids into urine, adj per g dose / Excretion of phospholipids into urine, avg / Excretion of phospholipids into urine, single measurements: within 8 h
# Method: An randomized n-of-1 dose escalation study was conducted to assess the activity of a clathrate of HP-α-CD and sodium caprate (C-10 fatty acid, capric acid, decanoic acid) in extracting phospholipids from serum into urine.
# BBB = details: cited from earlier work
# Caco-2 cells = details: Caco-2 cells; cited from earlier work
# [3] = test system: unesterified cholesterol (UC) storage; details: 3-week-old Npc1-/- mice, dorsal neocortex, filipin; cited from earlier work
# [4] = cited from earlier work
# MCF7 BC cells = details: cited from earlier work
# [5] = test system: primary effusion lymphoma (PEL); details: mice; cited from earlier work
# a-syn = target: T1, a-syn (Homo sapiens, UniProt P37840); details: transfected cells, immunoblot; cited from earlier work
# T1 construct: expressed in transfected cells
# [6] = target: BC resistance protein (BCRP/ABCG2) (Homo sapiens, UniProt Q9UNQ0); details: cited from earlier work
# Sequence of BC resistance protein (BCRP/ABCG2) (Q9UNQ0 whole entry): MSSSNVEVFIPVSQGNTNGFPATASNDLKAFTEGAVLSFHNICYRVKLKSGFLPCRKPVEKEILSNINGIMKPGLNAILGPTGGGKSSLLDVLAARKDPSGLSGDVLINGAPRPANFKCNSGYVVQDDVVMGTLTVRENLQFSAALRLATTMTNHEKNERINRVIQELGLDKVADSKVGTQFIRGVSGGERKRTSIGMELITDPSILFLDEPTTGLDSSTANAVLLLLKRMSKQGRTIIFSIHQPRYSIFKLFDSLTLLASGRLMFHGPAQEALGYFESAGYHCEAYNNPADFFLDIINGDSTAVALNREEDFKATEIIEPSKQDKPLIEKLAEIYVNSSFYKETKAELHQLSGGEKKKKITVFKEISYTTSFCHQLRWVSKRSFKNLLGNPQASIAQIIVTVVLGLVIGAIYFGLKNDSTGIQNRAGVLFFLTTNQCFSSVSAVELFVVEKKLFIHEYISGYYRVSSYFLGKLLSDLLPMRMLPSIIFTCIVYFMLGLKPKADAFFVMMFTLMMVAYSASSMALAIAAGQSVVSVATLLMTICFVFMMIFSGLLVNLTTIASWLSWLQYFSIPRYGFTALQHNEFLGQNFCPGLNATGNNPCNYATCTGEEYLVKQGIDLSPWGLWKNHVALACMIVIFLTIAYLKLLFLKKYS
# NPC cells = details: cited from earlier work
# BC = details: in vivo; cited from earlier work
# MDA-MB-231 BC cells = details: independently of cholesterol; cited from earlier work
# [7] = test system: H7 Lewis lung cancer cell lines; details: three H7 Lewis lung cancer cell lines; cited from earlier work
# APP = details: AD mouse cells; cited from earlier work
# α-synuclein [8] = target: T2, α-synuclein (Homo sapiens, UniProt P37840); parameters: expressed in transfected cells; host or cells: HeLa cells; details: HeLa cells, 20 mM, 1 hr; cited from earlier work
# [9] = even in the relative absence of cholesterol; cited from earlier work
# α-synuclein [10] = target: T2, α-synuclein; parameters: from tissue; host or cells: brain of hα-syn transgenic mice; details: mice; cited from earlier work
# [11] = test system: MDA-MB-241 and ZR751 BC cells; details: cited from earlier work
# Aβ = details: rat hippocampal neurons infected with SFV carrying APP; cited from earlier work
# [12] = 12 mM cyclodextrin, 5 μM A2E, blue-light irradiation or 1 d in the dark; cited from earlier work
# [13] = test system: H7-O Lewis lung cancer cells; details: mice implanted with H7-O Lewis lung cancer cells; cited from earlier work
substance,measurement,setting,value
2-hydroxypropyl-α-cyclodextrin [HP-α-CD],Tumor Volume,BCa,effective
same,recovery of HP-α-CD from morning urine (resorption),[1],not excreted
same,"Excretion of phospholipids into urine, adj (expected level in healthy subjects subtracted)",[2]; oral dose 18 g,1.05 mM
same,"Excretion of phospholipids into urine, adj per g dose",[2]; oral dose 18 g,0.06 mM/g
same,"Excretion of phospholipids into urine, avg",[2]; oral dose 18 g,3.87 mM
same,"Excretion of phospholipids into urine, single measurements",[2]; oral dose 18 g,3.8 mM and 3.5 mM and 4.3 mM
same,"Excretion of phospholipids into urine, adj (expected level in healthy subjects subtracted)",[2]; oral dose 22 g,2.11 mM
same,"Excretion of phospholipids into urine, adj per g dose",[2]; oral dose 22 g,0.10 mM/g
same,"Excretion of phospholipids into urine, avg",[2]; oral dose 22 g,4.93 mM
same,"Excretion of phospholipids into urine, single measurements",[2]; oral dose 22 g,5.2 mM and 4.4 mM
same,"Excretion of phospholipids into urine, adj (expected level in healthy subjects subtracted)",[2]; oral dose 26 g,4.05 mM
same,"Excretion of phospholipids into urine, adj per g dose",[2]; oral dose 26 g,0.16 mM/g
same,"Excretion of phospholipids into urine, avg",[2]; oral dose 26 g,6.87 mM
same,"Excretion of phospholipids into urine, single measurements",[2]; oral dose 26 g,7.2 mM and 6.3 mM and 7.1 mM
same,"Excretion of phospholipids into urine, adj (expected level in healthy subjects subtracted)",[2]; oral dose 30 g,4.65 mM
same,"Excretion of phospholipids into urine, adj per g dose",[2]; oral dose 30 g,0.15 mM/g
same,"Excretion of phospholipids into urine, avg",[2]; oral dose 30 g,7.47 mM
same,"Excretion of phospholipids into urine, single measurements",[2]; oral dose 30 g,7.5 mM and 6.8 mM and 8.1 mM
same,"Excretion of phospholipids into urine, adj (expected level in healthy subjects subtracted)",[2]; oral dose 36 g,5.75 mM
same,"Excretion of phospholipids into urine, adj per g dose",[2]; oral dose 36 g,0.16 mM/g
same,"Excretion of phospholipids into urine, avg",[2]; oral dose 36 g,8.57 mM
same,"Excretion of phospholipids into urine, single measurements",[2]; oral dose 36 g,8.2 mM and 8.8 mM and 8.7 mM
same,"Excretion of phospholipids into urine, adj (expected level in healthy subjects subtracted)",[2]; oral dose 44 g,4.88 mM
same,"Excretion of phospholipids into urine, adj per g dose",[2]; oral dose 44 g,0.11 mM/g
same,"Excretion of phospholipids into urine, avg",[2]; oral dose 44 g,7.70 mM
same,"Excretion of phospholipids into urine, single measurements",[2]; oral dose 44 g,8.0 mM and 7.6 mM and 7.5 mM
same,side effect observed,"[2]; oral, only at the highest (44 g) dose",softening of stool
same,BBB breakdown,BBB,2.5 mM
same,cytotoxicity,Caco-2 cells,less cytotoxic than α-CD
same,UC storage in brain cells,[3],clearly reduced
same,Solubility in water,[4]; Table 1,>500 g/L
same,Solubility in water,[4]; Table 3,~500^a g/l
methyl-β-cyclodextrin [MβCD],endocytosis and migration,MCF7 BC cells,inhibited
same,growth of primary effusion lymphoma (PEL),[5],inhibited growth
same,level of a-syn in the membrane fraction and detergent-insoluble fraction,a-syn,reduced the level of a-syn
same,toxicity on BBB in vitro,BBB,similar
same,decrease in activity of BC resistance protein (BCRP/ABCG2),[6],40%
same,cholesterol accumulation,NPC cells,most potent
same,efficacy in a mouse model of BC,BC,effective
same,internalization of exosomes containing integrins,MDA-MB-231 BC cells,inhibited
same,invasion activity,[7],suppressed invasion activity
same,APPsα levels in the medium,APP,increased
same,APPsβ levels in the medium,APP,did not change
same,levels of intracellular APPsβ,APP,decrease
same,levels of α secretase cleavage products C83,APP,increase
same,co-location of α-synuclein with the cell membrane,α-synuclein [8],dramatically reduced
same,LPC or FFA mediated surfactant inhibition,[9],reversed
same,accumulation of α-synuclein in neuronal cell body and synapses,α-synuclein [10],reduced accumulation
same,spheroid migration and invasion,[11],inhibited
same,secretion of Aβ,Aβ,inhibits secretion
same,protection of A2E against oxidation,[12],protect A2E against oxidation
same,number of lung metastases,[13],reduced the number of lung metastases

# Reference: patent publication US20230130066A1, “USE OF CYCLODEXTRINS IN DISEASES AND DISORDERS INVOLVING PHOSPHOLIPID DYSREGULATION” (priority 2017, published 2023)
